Measurements from publication PMC9465062, “Exploring potential antidiabetic and anti-inflammatory flavonoids from Euphorbia humifusa with an integrated strategy” (Frontiers in Pharmacology, 2022).
Values joined by “and” are separate entries in the source; they are usually repeats but may differ in a detail not shown here. Equal values may be shown once. Read-outs that look alike come from different tables or passages of the source. Marks after values point to notes of the source that are not given here.

Tests used:
[1] = DPPH free radical scavenging assay; details: mean ± SD, n = 3
Description: (§1) The antioxidant activity of our samples was ascertained by evaluating their capacity to scavenge free radicals and reduce ferric ions. The DPPH and ABTS free radical scavenging assays were performed as per the method of Xu and his colleagues ([Xu et al., 2019]). Vit C, Trolox, and BHT were utilized as positive controls whereas pure methanol was for the blank control. The scavenging rate was calculated using the equation: Scavenging rate (%) =(A0 −AS)/A0× 100% With A 0 and As are ascribed to the absorbance value of the blank control, and the tested sample or positive control respectively. The results were expressed in IC50 values (n = 3, mean ± standard deviation).

[2] = biological target: α-glucosidase (α-Glu) (Saccharomyces cerevisiae, UniProt P53341); assay: Bio-affinity ultrafiltration UPLC/QTOF-MS with α-Glu; details: SB = Aactive/Ainactive, ligands from EHNB
Description: (§2) Concisely, 100 µL volume of EHNB sample was incubated with 40 µL COX-2 (8 units), or 100 µL α-Glu (6 units) active enzymes. Afterward, the mix solutions were incubated for 45 min and subsequently transferred to a centrifugal ultrafiltration vial 10 kDa cut-off filter membrane. They were initially centrifuged at 10,000 rpm for 10 min (25°C) to withdraw the extra solution followed by three successive centrifugations with 200 µL phosphate-buffered saline (PBS) to wash away the non-binding compounds. Finally, the fixed ligand candidates were fished out from the complex throughout enzyme denaturation with 200 μL of 70% (v/v) aqueous methanol before centrifugation (10,000 rpm, 10 min). The filtrates from three denaturation processes were gathered and dried on nitrogen blowing before reconstitution in 50 μL of aqueous methanol (50%, v/v) for further analytical analysis.
(§3) In this study, the high throughput ligand screening bio-affinity ultrafiltration UPLC/QTOF-MS targeting α-Glu and COX-2 has been utilized to fish out these key hypoglycemic and anti-inflammatory chemicals. […] Based on the comparison of peak areas of the chromatograms obtained from the sample incubated with the active enzyme and that of the denatured group, the relative binding of each candidate was assessed via the specific binding value calculated from the equation: Specific binding (SB)=Aactive/Ainactive

[3] = biological target: T1, COX-2 (Homo sapiens, UniProt P35354); assay: Bio-affinity ultrafiltration UPLC/QTOF-MS with COX-2; details: SB = Aactive/Ainactive, ligands from EHNB
T1 sequence (P35354 18-604): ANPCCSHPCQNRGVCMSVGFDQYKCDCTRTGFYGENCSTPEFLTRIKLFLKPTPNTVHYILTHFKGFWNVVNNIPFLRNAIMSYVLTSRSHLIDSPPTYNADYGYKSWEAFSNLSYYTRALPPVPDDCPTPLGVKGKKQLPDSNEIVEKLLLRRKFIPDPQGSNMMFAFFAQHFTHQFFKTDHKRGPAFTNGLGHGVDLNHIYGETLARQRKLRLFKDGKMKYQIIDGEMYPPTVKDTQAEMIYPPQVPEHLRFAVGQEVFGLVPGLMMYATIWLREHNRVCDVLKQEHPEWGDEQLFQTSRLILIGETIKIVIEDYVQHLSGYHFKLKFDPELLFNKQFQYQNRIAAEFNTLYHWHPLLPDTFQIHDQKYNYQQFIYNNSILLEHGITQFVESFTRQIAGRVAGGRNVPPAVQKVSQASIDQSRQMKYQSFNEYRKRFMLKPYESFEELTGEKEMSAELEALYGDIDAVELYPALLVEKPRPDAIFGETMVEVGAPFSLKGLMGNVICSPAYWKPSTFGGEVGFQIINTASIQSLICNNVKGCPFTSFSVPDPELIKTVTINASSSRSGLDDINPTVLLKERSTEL
Description: as §2, §3

[4] = biological target: T1, COX-2; assay: In vitro COX-2 inhibition assay (inhibitor screening kit); assay type: biochemical; design: purchased Beyotime Biotechnology (Shanghai, China) S0168
Description: In brief, the working solutions including COX-2 cofactor, COX-2 enzyme solution, COX-2 substrate, and COX-2 probe were first prepared in accordance with the supplier manual, which were subsequently diluted ten times with the buffer kit assay. Thereafter, 150 µL Tris-HCl (pH 7.8), 10 µL of COX-2 cofactor, and 10 µL of work solution excluding the blank group were mixed in a 96 well black plate. […] After a 10 min incubation at 37°C, the reaction was initiated with 10 µL of COX-2 probe and 10 µL of COX-2 substrate. Finally, their relative fluorescence unit (RFU) was read from an excitation wavelength of 560 nm and an emission wavelength of 590 nm, after 20 min of incubation (37°C).
With RFU 100% enzyme , RFU sample , and RFU blank control represent the relative fluorescence value of the intact enzyme, samples and blank control respectively. The experiment was conducted in triplicates and the IC50 values were expressed into mean ± standard deviation.

[5] = ABTS free radical scavenging assay; details: mean ± SD, n = 3
Description: as §1

[6] = Ferric reducing antioxidant power (FRAP) assay; details: mean ± SD, n = 3
Description: The ferric […] behavior using the ferric reducing antioxidant power (FRAP) assay was conducted based on a priorly reported method by our research group ([Rakotondrabe et al., 2022]).

Sequence of α-glucosidase (α-Glu) (P53341 whole entry): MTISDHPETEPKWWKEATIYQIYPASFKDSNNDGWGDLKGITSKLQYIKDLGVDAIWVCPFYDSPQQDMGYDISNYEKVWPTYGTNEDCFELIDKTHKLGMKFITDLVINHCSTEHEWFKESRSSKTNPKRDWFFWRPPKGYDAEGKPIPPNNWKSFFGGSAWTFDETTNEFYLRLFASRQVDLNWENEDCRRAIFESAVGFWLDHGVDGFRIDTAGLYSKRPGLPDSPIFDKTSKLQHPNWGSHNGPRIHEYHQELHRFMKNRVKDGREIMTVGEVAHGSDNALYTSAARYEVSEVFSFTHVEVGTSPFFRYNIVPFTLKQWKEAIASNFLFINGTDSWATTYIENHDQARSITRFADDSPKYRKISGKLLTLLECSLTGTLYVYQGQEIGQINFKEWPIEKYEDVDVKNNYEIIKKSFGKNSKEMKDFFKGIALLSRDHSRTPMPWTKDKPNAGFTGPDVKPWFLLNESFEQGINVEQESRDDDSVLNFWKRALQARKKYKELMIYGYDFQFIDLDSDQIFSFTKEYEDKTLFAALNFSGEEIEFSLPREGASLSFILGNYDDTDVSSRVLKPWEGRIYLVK

SMILES	IC50 DPPH [1]	IC50 ABTS [5]	α-Glu SB (specific binding) [2]	COX-2 SB (specific binding) [3]	FRAP [6]	also measured
O=c1oc2c(O)c(O)cc3c(=O)oc4c(O)c(O)cc1c4c23 [Compound 4, Ellagic acid]			1.28	1.05		
O=c1c(O[C@@H]2O[C@H](CO)[C@@H](O)[C@H](O)[C@H]2O)c(-c2ccc(O)cc2)oc2cc(O)cc(O)c12 [Compound 6, Astragalin (Kaempferol-3-O-glucoside)]			1.32	1.36		IC50 ([4]; validation with pure compounds, Figure 6B, read-out: COX-2 IC50): 49.1 ± 1.49 µM
O=c1cc(-c2ccc(O)cc2)oc2c([C@@H]3O[C@H](CO)[C@@H](O)[C@H](O)[C@H]3O)c(O)cc(O)c12 [Compound 8, Vitexin (Apigenin 8-C-glucoside)]			1.26	1.32		IC50 [4]: 27.9 ± 1.74 µM
O=C1O[C@H]([C@@H](O)CO)C(O)=C1O [Vit C, ascorbic acid]	3.35 ± 0.12^f µg/ml	4.18 ± 0.06^e µg/ml			2.04 ± 0.01 mM Fe^2+/g and 2.04 ± 0.01^a mM Fe^2+/g	

Continued, in another order:

IC50 DPPH [1]	IC50 ABTS [5]	SMILES	α-Glu SB (specific binding) [2]	COX-2 SB (specific binding) [3]	FRAP [6]	also measured
10.82 ± 0.37^c µg/ml		Cc1cc(C(C)(C)C)c(O)c(C(C)(C)C)c1 [BHT, butylated hydroxytoluene]				
	6.15 ± 0.98^d µg/ml	Cc1c(C)c2c(c(C)c1O)CCC(C)(C(=O)O)O2 (centres unmarked) [Trolox]			1.79 ± 0.01 mM Fe^2+/g and 1.79 ± 0.01^b mM Fe^2+/g	
